Consider five compounds from patent US9359389B2, “Caged ceramide-1-phosphate derivatives” (RESEARCH FOUNDATION OF THE CITY UNIVERSITY OF NEW YORK, priority 2009, dated 2016).

“Also recorded” adds a separate entry of the source.

Data set [1] in a line: Qualitative measurement of uncaging efficiency (photolysis at 365 nm, TLC). Type of data set: physicochemical. The conditions noted are these: 100 μM in 50% aqueous EtOH, 50% 10 mM Tris, pH 7.4, 365 nm UV lamp at 1 cm. How it is done: Qualitative Measurement of Uncaging Efficiency. A 100 μM solution of S1P 1 in 50% aqueous EtOH and 50% 10 mM Tris, pH 7.4, was placed in a quartz cuvette and placed at a distance of 1 cm from a conventional UV lamp (Entela UVGL-25 UV lamp). The compound was irradiated using long wavelength (365 nm) and, after a certain time, as indicated in the TLC, an aliquot was applied to a TLC plate, which was developed with CHCl3/MeOH 3:1. Photodecomposition of 100% DECM-caged 1P 1 took place around 60 min.
Qualitative Measurement of Uncaging Efficiency. A 100 μM solution of BHNB-caged S1P (2) in 50% aqueous EtOH and 50% 10 mM Tris, pH 7.4, was placed in a quartz cuvette and irradiated at 365 nm at a distance of 1 cm with a conventional UV lamp (Entela UVGL-25 UV lamp). Aliquots were withdrawn at various times and analyzed by TLC (developed using CHCl3/MeOH 2:1). The mechanism of photolysis of 2-nitrobenzyl caged compounds has been thoroughly studied and is known to generate 2-nitrosobenzaldehyde as the photo by-product of the reaction.^S1 Similarly, our BHNB uncaging experiment is expected to generate a 2-nitrosobenzophenone derivative as the byproduct (Formula 20). […] 100% photodecomposition of […]-S1P (2) took place after 65 min.

Another data set concerns RAW 264.7 cells. The data set is described as follows: Cell growth and proliferation assay (MTS) in RAW 264.7 macrophages. The note with it: for cell growth on delivery into RAW 264.7 macrophages: FIG. 3A, 400-500 nm light in a transilluminator; for concentration at which cell division was stimulated (MTS assay) on exposure of the cells to light: RAW264.7, compound in EtOH, 400-500 nm light; for growth stimulation in the dark: cells incubated in the dark with the compounds; for concentration for stimulation of macrophage proliferation compared with exogenous C1P: macrophages (RAW 264.7 and BMDM), after photorelease.

A further data set relates to primary BMDM cells. The data set is described as follows: Cell growth and proliferation assay (MTS) in primary bone marrow-derived macrophages. In kind it is cell-based, CD-1 mice. The note with it: for concentration at which cell division was stimulated (MTS assay) on exposure of the cells to light: primary BMDM, compound in EtOH. How it is done:
The cells were incubated with 1.5% MCSF for 24 hr.
Compounds 1a and 2a stimulated cell division, as determined by the MTS assay, at 2.5 and 1.0 μM, respectively, on exposure of the cells to light.
Cell Growth and Proliferation Assays. RAW 264.7 cells were obtained from the American Type Culture Collection (Rockville, Md.). BMDMs were isolated from femurs of 6- to 8-week old female CD-1 mice from Charles River Laboratory as described previously.^S2 The cells were cultured as described previously. Cell growth was estimated by measuring the rate of reduction of the tetrazolium dye MTS, (3-(4,5-dimethylthiazol-2-yl)-5-(3-carboxymethoxy-phenol)-2-(4-sulfophenyl)-2H-tetrazolium). […] Photolysis of 2.5 μM of compound 1a (delivered to RAW 264.7 cells in EtOH) was equipotent as exogenous 30 μM C1P.
On the technique in general: Tetrazolium assays rely on reduction of a dye to a coloured formazan, in cell work by metabolically active cells.

Description for RAW 264.7 cells: Cell Growth and Proliferation Assays. RAW 264.7 cells were obtained from the American Type Culture Collection (Rockville, Md.). […] Cell growth was estimated by measuring the rate of reduction of the tetrazolium dye MTS, (3-(4,5-dimethylthiazol-2-yl)-5-(3-carboxymethoxy-phenol)-2-(4-sulfophenyl)-2H-tetrazolium).
The cells were exposed to 400-500 nm light in a transilluminator equipped with a 9W lamp for 60 min at a distance of 1.5 cm at 37° C.

With `CCCCCCCCCCCCC/C=C/[C@@H](O)[C@@H](N)COP(=O)(O)OCc1cc(=O)oc2cc(N(CC)CC)ccc12` [Compound 1, (2S,3R,4E)-2-Amino-3-hydroxyoctadec-4-enyl (7-(Diethylamino)coumarin-4-yl) -methyl Phosphate], the “time to 100% photodecomposition” value in data set [1] is “around 60 min”.
For the compound `CCCCCCCCCCCCC/C=C/[C@@H](O)[C@H](COP(=O)(O)OCc1cc(=O)oc2cc(N(CC)CC)ccc12)NC(=O)CCCCCCCCCCCCCCC` [Compound 1a, (2S,3R,4E)-2-Palmitamido-3-hydroxyoctadec-4-enyl (7-Diethylaminocoumarin-4-yl)methyl Phosphate], in the data set on RAW 264.7 cells, the “cell growth on delivery into RAW 264.7 macrophages” value is given as “stimulates cell growth”, the “concentration at which cell division was stimulated (MTS assay) on exposure of the cells to light” value (from here on “concentration … to light”) was 2.5 µM, the “growth stimulation in the dark” value is “No growth stimulation” and the “concentration for stimulation of macrophage proliferation compared with exogenous C1P” value is given as “significantly lower concentrations than exogenous C1P”. The “potency of growth stimulation compared with exogenous C1P at 30 μM” value with RAW 264.7 cells (RAW 264.7, 2.5 μM in EtOH, photolysis) is “as potent as exogenous C1P; also recorded: equipotent”. For the same compound, the “concentration … to light” value in the data set with primary BMDM cells was 2.5 µM.
Consider `CCCCCCCCCCCCC/C=C/[C@@H](O)[C@@H](N)COP(=O)(O)OC(c1ccccc1)c1cc(O)c(Br)cc1[N+](=O)[O-]` (stereo partly drawn) [Compound 2, (2S,3R,4E)-2-Amino-3-hydroxyoctadec-4-enyl-(4′-bromo-5′-hydroxy-2′-nitrophenyl)(phenyl)methyl Hydrogen Phosphate], for which, in data set [1], the “time to 100% photodecomposition” value is reported as 65 min.
For the compound `CCCCCCCCCCCCC/C=C/[C@@H](O)[C@H](COP(=O)(O)OC(c1ccccc1)c1cc(O)c(Br)cc1[N+](=O)[O-])NC(=O)CCCCCCCCCCCCCCC` (stereo partly drawn) [Compound 2a, (4′-Bromo-5′-hydroxy-2′-nitrophenyl)(phenyl)methyl-(2S,3R,4E)-3-hydroxy-2-palmitamidooctadee-4-enyl Hydrogen Phosphate], in the data set with RAW 264.7 cells, the “cell growth on delivery into RAW 264.7 macrophages” value was “stimulates cell growth”, the “concentration … to light” value was found to be 1.0 µM, the “growth stimulation in the dark” value is given as “No growth stimulation” and the “concentration for stimulation of macrophage proliferation compared with exogenous C1P” value is given as “significantly lower concentrations than exogenous C1P”. Further, the “concentration … to light” value in the data set with primary BMDM cells worked out at 1.0 µM.
For the compound `CCCCCCCCCCCCC/C=C/[C@@H](O)[C@H](COP(=O)(O)O)NC(=O)CCCCCCCCCCCCCCC` [N-palmitoyl-C1P, reference compound], the “optimum concentration for stimulation of cell growth” value was determined as 30 µM with RAW 264.7 cells (RAW 264.7, aqueous dispersion, exogenous addition) and 50 µM with primary BMDM cells (BMDM, aqueous dispersion, exogenous addition). The “effect on cell growth at concentrations higher than 30 μM” value in the data set on RAW 264.7 cells (RAW 264.7, exogenous aqueous dispersion) is “growth inhibitory”.
